Where two headings read alike, the source gives them in different places.

Holding throughout (assay): KINOMEscan (ScanMAX) kinase profiling
What all share (type): binding

Experiment [1] addresses T1, panel of 468 kinases (Homo sapiens, UniProt P42336, H1047L).
T1 construct: purchased KINOMEscan (ScanMAX) service
Conditions: PIK3CA(H1047L); 1 μM; read-out: % control.

The target of experiment [2] is T2, panel of 468 kinases (Homo sapiens, UniProt P35590).
T2 construct: purchased KINOMEscan (ScanMAX) service
Conditions: TIE1; 1 μM; read-out: % control.

The target in experiment [3] is T3, panel of 468 kinases (Homo sapiens, UniProt O75460).
T3 construct: purchased KINOMEscan (ScanMAX) service
Particulars: ERN1; 1 μM; read-out: % control.

Experiment [4] addresses T4, panel of 468 kinases (Homo sapiens, UniProt Q8TDX7).
T4 construct: purchased KINOMEscan (ScanMAX) service
Conditions: NEK7; 1 μM; read-out: % control.

For experiment [5], the target named is T5, panel of 468 kinases (Homo sapiens, UniProt Q13163).
T5 construct: purchased KINOMEscan (ScanMAX) service
T5 sequence (Q13163 1-448): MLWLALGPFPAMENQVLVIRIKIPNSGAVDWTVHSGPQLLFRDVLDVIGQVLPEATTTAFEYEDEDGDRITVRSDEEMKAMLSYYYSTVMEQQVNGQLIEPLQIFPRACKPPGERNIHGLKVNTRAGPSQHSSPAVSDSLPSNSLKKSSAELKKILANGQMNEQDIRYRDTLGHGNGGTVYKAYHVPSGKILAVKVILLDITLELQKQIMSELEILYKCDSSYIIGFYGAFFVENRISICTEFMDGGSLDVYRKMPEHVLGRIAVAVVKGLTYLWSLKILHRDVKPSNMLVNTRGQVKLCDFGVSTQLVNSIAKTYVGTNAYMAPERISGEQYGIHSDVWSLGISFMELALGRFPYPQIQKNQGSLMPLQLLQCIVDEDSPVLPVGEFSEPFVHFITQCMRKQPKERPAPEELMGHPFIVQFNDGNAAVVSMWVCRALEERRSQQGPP
Particulars: MEK5; 1 μM; read-out: % control.

Experiment [6] addresses T6, panel of 468 kinases (Homo sapiens, UniProt P10721).
T6 construct: purchased KINOMEscan (ScanMAX) service
Conditions: 1 μM, read-out: % control.

The target in experiment [7] is T7, panel of 468 kinases (Homo sapiens, UniProt P42336).
T7 construct: purchased KINOMEscan (ScanMAX) service
Conditions: PIK3CA; 1 μM; read-out: % control.

In experiment [8] the target is T8, panel of 468 kinases (Homo sapiens, UniProt Q05655).
T8 construct: purchased KINOMEscan (ScanMAX) service
Particulars: PRKCD; 1 μM; read-out: % control.

For experiment [9], the target named is T9, panel of 468 kinases (Homo sapiens, UniProt Q8IVH8).
T9 construct: purchased KINOMEscan (ScanMAX) service
T9 sequence (Q8IVH8 1-894): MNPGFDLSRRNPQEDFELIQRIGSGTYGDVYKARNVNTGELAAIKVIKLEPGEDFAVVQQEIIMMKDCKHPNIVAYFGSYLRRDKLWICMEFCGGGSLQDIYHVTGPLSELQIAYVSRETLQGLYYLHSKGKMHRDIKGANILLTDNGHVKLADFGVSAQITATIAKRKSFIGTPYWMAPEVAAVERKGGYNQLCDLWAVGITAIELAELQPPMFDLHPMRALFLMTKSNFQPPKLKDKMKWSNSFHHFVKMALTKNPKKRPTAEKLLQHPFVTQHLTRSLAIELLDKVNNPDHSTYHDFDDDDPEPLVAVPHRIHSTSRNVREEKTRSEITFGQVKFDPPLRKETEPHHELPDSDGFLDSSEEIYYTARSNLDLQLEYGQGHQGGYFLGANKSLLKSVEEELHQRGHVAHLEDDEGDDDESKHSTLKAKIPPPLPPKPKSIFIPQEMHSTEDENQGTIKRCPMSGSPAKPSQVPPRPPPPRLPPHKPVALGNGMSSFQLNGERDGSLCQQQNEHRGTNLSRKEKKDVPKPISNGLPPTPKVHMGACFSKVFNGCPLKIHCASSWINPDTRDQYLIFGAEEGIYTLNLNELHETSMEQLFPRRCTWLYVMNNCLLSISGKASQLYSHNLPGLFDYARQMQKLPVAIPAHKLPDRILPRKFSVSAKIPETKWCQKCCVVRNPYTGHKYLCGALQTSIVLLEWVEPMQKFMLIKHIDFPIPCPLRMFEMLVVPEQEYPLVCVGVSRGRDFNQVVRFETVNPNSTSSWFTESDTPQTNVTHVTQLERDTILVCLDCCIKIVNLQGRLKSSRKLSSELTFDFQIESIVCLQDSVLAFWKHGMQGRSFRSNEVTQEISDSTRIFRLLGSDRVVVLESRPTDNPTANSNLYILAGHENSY
Particulars: MAP4K3; 1 μM; read-out: % control.

T4 sequence (Q8TDX7 whole entry): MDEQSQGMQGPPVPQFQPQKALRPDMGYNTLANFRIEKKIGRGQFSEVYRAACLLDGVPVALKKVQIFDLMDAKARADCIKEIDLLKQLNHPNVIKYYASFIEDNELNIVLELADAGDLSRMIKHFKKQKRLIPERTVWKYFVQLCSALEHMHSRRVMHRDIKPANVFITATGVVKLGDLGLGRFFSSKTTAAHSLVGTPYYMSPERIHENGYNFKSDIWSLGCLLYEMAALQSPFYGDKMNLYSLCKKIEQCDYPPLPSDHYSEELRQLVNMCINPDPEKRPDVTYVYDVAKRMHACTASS
T3 sequence (O75460 19-977): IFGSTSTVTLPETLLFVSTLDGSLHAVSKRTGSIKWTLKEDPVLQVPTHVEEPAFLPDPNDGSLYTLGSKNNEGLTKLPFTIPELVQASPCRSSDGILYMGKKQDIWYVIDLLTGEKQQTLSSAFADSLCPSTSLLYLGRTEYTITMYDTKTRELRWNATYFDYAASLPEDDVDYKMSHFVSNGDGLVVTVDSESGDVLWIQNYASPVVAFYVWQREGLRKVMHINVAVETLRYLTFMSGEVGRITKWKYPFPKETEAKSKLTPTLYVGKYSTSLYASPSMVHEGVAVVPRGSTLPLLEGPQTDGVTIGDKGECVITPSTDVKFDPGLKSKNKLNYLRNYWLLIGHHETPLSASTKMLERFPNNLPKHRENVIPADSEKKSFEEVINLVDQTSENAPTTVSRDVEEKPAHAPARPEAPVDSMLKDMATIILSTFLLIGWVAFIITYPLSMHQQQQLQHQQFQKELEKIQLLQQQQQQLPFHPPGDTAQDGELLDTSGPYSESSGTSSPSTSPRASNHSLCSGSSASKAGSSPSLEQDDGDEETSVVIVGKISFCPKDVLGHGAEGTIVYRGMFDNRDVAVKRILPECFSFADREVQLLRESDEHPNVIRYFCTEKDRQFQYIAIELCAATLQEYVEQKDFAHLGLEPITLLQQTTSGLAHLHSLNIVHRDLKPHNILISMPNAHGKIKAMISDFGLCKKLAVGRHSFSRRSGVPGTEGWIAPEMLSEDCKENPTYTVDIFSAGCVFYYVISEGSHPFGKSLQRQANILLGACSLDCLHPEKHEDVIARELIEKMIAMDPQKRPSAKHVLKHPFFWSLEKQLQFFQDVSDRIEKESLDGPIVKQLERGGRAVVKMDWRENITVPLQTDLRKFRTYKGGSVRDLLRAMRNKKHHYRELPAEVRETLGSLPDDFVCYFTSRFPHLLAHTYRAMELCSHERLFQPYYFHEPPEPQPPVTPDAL
T2 sequence (P35590 22-1138): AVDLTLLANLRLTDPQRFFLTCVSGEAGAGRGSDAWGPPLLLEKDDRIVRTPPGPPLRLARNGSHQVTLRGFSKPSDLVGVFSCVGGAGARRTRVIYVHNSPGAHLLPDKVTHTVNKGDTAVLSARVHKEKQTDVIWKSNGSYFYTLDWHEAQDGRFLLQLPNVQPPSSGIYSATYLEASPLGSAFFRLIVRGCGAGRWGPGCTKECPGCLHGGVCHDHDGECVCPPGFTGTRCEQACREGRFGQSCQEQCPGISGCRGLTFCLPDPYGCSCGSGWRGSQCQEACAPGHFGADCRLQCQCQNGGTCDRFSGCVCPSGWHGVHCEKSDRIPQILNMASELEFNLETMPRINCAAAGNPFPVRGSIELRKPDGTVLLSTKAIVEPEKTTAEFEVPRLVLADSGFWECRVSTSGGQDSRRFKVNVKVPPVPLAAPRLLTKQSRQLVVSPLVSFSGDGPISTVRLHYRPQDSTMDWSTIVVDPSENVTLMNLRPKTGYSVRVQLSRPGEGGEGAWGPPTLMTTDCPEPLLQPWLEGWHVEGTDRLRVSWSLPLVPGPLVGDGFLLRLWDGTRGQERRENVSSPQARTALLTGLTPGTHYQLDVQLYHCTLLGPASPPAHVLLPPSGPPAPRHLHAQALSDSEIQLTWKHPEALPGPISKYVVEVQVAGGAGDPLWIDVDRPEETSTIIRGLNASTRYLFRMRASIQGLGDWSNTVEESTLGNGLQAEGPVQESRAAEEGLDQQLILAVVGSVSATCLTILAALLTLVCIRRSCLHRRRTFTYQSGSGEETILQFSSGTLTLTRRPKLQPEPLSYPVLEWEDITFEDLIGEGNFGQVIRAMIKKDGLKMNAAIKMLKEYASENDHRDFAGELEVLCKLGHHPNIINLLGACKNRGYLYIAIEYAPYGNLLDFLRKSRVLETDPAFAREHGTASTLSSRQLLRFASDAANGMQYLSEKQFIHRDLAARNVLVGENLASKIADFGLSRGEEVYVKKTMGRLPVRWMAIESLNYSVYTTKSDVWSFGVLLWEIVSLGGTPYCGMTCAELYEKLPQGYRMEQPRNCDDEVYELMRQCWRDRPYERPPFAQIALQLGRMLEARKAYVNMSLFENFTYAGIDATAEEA
T7 sequence (P42336 whole entry): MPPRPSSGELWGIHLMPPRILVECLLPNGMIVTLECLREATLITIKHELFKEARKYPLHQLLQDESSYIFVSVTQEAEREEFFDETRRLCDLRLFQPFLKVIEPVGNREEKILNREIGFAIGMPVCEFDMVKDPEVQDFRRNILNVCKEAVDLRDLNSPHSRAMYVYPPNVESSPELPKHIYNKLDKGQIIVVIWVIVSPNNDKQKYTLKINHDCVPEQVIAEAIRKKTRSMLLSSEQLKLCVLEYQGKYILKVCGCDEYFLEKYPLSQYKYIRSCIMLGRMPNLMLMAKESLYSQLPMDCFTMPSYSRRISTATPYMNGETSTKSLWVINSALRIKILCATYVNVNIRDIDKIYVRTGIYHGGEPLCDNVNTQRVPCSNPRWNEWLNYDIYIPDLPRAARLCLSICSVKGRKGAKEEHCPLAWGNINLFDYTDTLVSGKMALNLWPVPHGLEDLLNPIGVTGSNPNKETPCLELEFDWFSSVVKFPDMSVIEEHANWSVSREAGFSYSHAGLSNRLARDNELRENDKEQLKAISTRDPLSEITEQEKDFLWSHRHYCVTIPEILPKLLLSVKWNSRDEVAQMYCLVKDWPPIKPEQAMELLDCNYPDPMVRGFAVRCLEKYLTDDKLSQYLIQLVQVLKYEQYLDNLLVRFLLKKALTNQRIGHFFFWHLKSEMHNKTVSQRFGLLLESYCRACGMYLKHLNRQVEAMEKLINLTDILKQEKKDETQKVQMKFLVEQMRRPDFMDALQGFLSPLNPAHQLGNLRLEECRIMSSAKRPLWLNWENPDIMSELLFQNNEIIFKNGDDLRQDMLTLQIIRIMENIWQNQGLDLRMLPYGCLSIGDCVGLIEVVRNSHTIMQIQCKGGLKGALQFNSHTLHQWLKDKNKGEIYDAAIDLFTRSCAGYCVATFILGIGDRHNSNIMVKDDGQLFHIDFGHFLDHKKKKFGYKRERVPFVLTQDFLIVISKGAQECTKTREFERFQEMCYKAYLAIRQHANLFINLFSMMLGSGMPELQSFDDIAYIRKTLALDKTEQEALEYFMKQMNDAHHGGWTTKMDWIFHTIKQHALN
T8 sequence (Q05655 whole entry): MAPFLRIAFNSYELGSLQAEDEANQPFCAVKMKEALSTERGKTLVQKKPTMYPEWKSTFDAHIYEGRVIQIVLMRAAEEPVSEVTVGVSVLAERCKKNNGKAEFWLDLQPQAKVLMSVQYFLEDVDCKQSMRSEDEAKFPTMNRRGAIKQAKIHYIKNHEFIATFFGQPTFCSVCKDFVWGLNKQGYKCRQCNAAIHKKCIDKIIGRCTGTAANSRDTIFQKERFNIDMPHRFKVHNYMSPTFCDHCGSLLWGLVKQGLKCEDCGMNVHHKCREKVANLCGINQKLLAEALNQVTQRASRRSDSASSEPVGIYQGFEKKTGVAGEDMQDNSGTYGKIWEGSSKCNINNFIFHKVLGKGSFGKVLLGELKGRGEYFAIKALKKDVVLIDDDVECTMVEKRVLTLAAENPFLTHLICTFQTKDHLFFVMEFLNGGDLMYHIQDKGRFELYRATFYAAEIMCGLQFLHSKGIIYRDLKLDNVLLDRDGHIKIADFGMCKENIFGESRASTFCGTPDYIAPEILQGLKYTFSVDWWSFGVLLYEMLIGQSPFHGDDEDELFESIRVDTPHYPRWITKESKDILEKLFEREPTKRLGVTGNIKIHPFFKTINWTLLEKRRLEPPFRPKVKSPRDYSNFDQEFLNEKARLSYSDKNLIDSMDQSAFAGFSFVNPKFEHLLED
T6 sequence (P10721 26-976): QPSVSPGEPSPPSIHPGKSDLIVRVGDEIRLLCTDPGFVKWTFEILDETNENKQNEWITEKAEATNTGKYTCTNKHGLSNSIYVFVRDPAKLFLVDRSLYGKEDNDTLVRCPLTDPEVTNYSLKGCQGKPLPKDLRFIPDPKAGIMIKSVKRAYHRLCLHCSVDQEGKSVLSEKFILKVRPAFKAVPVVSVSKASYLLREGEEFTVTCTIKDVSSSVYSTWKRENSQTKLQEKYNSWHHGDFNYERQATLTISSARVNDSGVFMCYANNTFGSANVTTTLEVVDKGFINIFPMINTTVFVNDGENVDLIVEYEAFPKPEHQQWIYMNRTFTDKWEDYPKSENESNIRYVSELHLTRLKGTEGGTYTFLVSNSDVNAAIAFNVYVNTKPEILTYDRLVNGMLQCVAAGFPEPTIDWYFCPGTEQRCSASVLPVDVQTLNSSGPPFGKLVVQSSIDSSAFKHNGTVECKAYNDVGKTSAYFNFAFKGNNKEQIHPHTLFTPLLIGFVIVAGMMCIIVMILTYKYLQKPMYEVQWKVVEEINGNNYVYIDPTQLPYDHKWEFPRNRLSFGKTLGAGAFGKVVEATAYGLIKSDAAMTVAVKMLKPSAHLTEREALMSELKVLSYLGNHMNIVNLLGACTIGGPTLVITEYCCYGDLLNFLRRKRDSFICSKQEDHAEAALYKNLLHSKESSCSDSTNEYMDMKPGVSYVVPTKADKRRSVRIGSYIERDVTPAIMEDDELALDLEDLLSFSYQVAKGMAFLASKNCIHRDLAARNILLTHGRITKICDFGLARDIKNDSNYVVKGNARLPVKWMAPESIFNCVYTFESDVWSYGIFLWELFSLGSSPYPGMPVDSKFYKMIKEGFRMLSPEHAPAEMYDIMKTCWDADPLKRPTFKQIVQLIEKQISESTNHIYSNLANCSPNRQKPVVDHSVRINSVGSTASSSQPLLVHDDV

For the compound `CNc1nc(Nc2ccc(C(=O)N3CCC(N4CCOCC4)CC3)c3c2OCO3)nc2[nH]cc(Cl)c12` [Compound 75, (7-((5-chloro-4-(methylamino)-7H-pyrrolo[2,3-d]pyrimidin-2-yl)amino)benzo[d][1,3]dioxol-4-yl)(4-morpholinopiperidin-1-yl)methanone], the remaining binding at 1 µM at panel of 468 kinases [1] worked out at 86%; on panel of 468 kinases [2], 100%; on panel of 468 kinases [3], 73%; on panel of 468 kinases [4] it was 99%; at panel of 468 kinases [5], 47%; on panel of 468 kinases [6] (KIT-autoinhibited) it was 68%. In addition, the remaining binding at 1 µM at panel of 468 kinases [6] (KIT) was 65%; at panel of 468 kinases [7], 93%; at panel of 468 kinases [8], 89%; at panel of 468 kinases [9] it was 81%.
Regarding `CNc1nc(Nc2ccc(P3(=O)CCN(C4CCOCC4)CC3)cc2OC)nc2[nH]cc(Cl)c12` [Compound 77, 4-(4-((5-chloro-4-(methylamino)-7H-pyrrolo[2,3-d]pyrimidin-2-yl)amino)-3-methoxyphenyl)-1-(tetrahydro-2H-pyran-4-yl)-1,4-azaphosphinane 4-oxide], the remaining binding at 1 µM on panel of 468 kinases [1] stood at 61%; on panel of 468 kinases [2], 100%; on panel of 468 kinases [3] it was 60%; on panel of 468 kinases [4] it was 100%; on panel of 468 kinases [5], 61%; at panel of 468 kinases [6] (KIT-autoinhibited) it was 93%. Also, the remaining binding at 1 µM on panel of 468 kinases [6] (KIT) was determined as 99%; on panel of 468 kinases [7], 100%; at panel of 468 kinases [8], 95%; at panel of 468 kinases [9], 100%.
Consider `CNc1nc(Nc2ccc(S(=O)(=O)N3CCC(N4CCOCC4)CC3)cc2OC)nc2[nH]cc(Cl)c12` [Compound 12, 5-chloro-N2-(2-methoxy-4-((4-morpholinopiperidin-1-yl)sulfonyl)phenyl)-N4-methyl-7H-pyrrolo[2,3-d]pyrimidine-2,4-diamine], for which the remaining binding at 1 µM on panel of 468 kinases [1] worked out at 56%; at panel of 468 kinases [2] it was 100%; at panel of 468 kinases [3], 67%; at panel of 468 kinases [4] it was 100%; on panel of 468 kinases [5], 86%; on panel of 468 kinases [6] (KIT-autoinhibited), 95%. For the same compound, the remaining binding at 1 µM at panel of 468 kinases [6] (KIT) was found to be 100%; at panel of 468 kinases [7], 97%; at panel of 468 kinases [8], 94%; on panel of 468 kinases [9] it was 98%.

Source of the values: patent US12479847B2 (DANA-FARBER CANCER INSTITUTE, INC., priority 2019, dated 2025).
